One molecule from patent US20230310309A1, “INJECTABLE DEPOT COMPOSITIONS FOR THE DELIVERY OF ANTIVIRAL AGENTS” (Merck Sharp & Dohme LLC, priority 2020, published 2023) can be followed below.

This data set in a line: solubility of islatravir in PBS. It counts as physicochemical. As to conditions: phosphate buffered saline (PBS), aqueous buffer, 37° C.

Structures are written as SMILES. In brackets after ≈: the same amount, converted by molar mass.

The solubility is the concentration that dissolves in the medium under given conditions. `C#C[C@]1(CO)O[C@@H](n2cnc3c(N)nc(F)nc32)C[C@@H]1O` [islatravir, 4′-ethynyl-2-fluoro-2′-deoxyadenosine]: the solubility was 1350 µg/mL (≈ 4.6 mM).
